The text below walks through data of patent US20250368649A1, “TETRAHYDROPYRIDOPYRIMIDINE PAN-KRAS INHIBITORS” (Mirati Therapeutics, Inc., priority 2022, published 2025).

For orientation: IC50 means the midpoint of a concentration-inhibition curve. A high value points to lower potency. A word on the inhibition: it is the change of the read-out against control, counted positive when it falls.

In one experiment the test system is PSN1 cells. The experiment can be described thus: Inhibition of KRas-mediated phosphorylation of ERK (Cisbio HTRF pERK), PSN1 cells. It is filed as cell-based. The conditions noted are these: Homo sapiens, PSN1, 3 h, 3 hour compound incubation, Cisbio pERK HTRF. An outline of the steps:
(§1)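 On the first day, plate 6,000 cells into each well in RPMI medium with 10% fetal bovine serum.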

The next experiment addresses KRas G12R (Homo sapiens, UniProt P01116, G12R). The experiment is described as follows: biochemical. The conditions noted are these: Binding to KRas (IC50 nM) G12R, TR-FRET displacement, KRas G12R. In general terms: TR-FRET usually uses a lanthanide donor and a delayed reading to cut background.
For a further experiment, the system named is A549 cells. The experiment can be described thus: Inhibition of KRas-mediated phosphorylation of ERK (Cisbio HTRF pERK), A549 cells. It is filed as cell-based. Conditions: Homo sapiens; for IC50: A549, 3 h, 3 hr compound incubation, Cisbio pERK HTRF; for inhibition at 0.1 µM: single point at 100 nM, 3 hrs compound incubation.
For a further experiment, the system named is H460 cells. The experiment can be described thus: Inhibition of KRas-mediated phosphorylation of ERK (Cisbio HTRF pERK), H460 cells. It is filed as cell-based. The conditions noted are these: Homo sapiens; for IC50: NCI-H460, 3 h, 3 hr compound incubation, Cisbio pERK HTRF; for inhibition at 0.1 µM: NCI-H460, single point at 100 nM, 3 hrs compound incubation.

For a further experiment, the system named is H727 cells. The experiment can be described thus: Inhibition of KRas-mediated phosphorylation of ERK (Cisbio HTRF pERK), H727 cells. It is filed as cell-based. Conditions: Homo sapiens; for IC50: NCI-H727, 3 h, 3 hr compound incubation, Cisbio pERK HTRF; for inhibition at 0.1 µM: NCI-H727, single point at 100 nM, 3 hrs compound incubation.
For another experiment, the system named is H358 cells. The experiment can be described thus: Inhibition of KRas-mediated phosphorylation of ERK (Cisbio HTRF pERK), H358 cells. It is filed as cell-based. The conditions noted are these: Homo sapiens; for IC50: NCI-H358, 3 h, 3 hr compound incubation, Cisbio pERK HTRF; for inhibition at 0.1 µM: NCI-H358, single point at 100 nM, 3 hrs compound incubation.

A further experiment deals with MKN1 cells. The experiment can be described thus: Inhibition of KRas-mediated phosphorylation of ERK (Cisbio HTRF pERK), MKN1 cells. It is filed as cell-based. Conditions: Homo sapiens, MKN-1, 3 hour compound incubation, Cisbio pERK HTRF. In short, it runs like this: as §1
In the next experiment the target is KRas G12V (Homo sapiens, UniProt P01116, G12V). The experiment is described as follows: biochemical. The conditions noted are these: Binding to KRas (IC50 nM) G12V, TR-FRET displacement, KRas G12V.
Chain of KRas G12V (P01116 1-169 isoform P01116-2 G12V): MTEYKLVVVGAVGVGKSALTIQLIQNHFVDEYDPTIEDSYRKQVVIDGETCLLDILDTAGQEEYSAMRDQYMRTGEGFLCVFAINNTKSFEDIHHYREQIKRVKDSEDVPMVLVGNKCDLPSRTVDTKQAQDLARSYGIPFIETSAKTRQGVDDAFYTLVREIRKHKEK
For another experiment, the system named is HCT116 cells. The experiment is described as follows: Inhibition of KRas-mediated phosphorylation of ERK (Cisbio HTRF pERK), HCT116 cells. It is filed as cell-based. Conditions: Homo sapiens; for IC50: HCT-116, 3 h, 3 hr compound incubation, Cisbio pERK HTRF; for inhibition at 0.1 µM: HCT-116, single point at 100 nM, 3 hrs compound incubation.
The subject of the next experiment is ASPC1 cells. The experiment is described as follows: Inhibition of KRas-mediated phosphorylation of ERK (Cisbio HTRF pERK), ASPC1 cells. It is filed as cell-based. Conditions: Homo sapiens, AsPC-1 cells; for IC50: ASPC1, 3 h, 3 hr compound incubation, Cisbio pERK HTRF; for inhibition at 0.1 µM: ASPC1, single point at 100 nM, 3 hrs compound incubation.
The target of another experiment is KRas G12D (Homo sapiens, UniProt P01116, G12D). The experiment can be described thus: biochemical. Conditions: Binding to KRas (IC50 nM) G12D, TR-FRET displacement, KRas G12D.
Chain of KRas G12D (P01116 1-169 isoform P01116-2 G12D): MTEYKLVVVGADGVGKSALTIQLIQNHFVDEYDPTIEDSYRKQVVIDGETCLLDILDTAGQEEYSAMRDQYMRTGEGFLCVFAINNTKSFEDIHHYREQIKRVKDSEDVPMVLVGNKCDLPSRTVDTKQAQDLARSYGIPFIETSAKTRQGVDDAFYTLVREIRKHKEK

Chain of KRas G12R (P01116 1-169 isoform P01116-2 G12R): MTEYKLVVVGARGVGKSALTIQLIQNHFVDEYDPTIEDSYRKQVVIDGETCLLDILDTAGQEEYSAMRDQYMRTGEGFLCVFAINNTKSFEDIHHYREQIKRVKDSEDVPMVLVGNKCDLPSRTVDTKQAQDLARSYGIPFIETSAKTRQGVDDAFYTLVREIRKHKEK

For `CCc1c(F)ccc2cc(O)cc(N3CCc4c(nc(OC[C@@]56CCCN5C[C@H](F)C6)nc4N4CCCCn5nc(C(=O)N(C)C)c(Br)c5C4)C3)c12` [Example 507, 3-bromo-5-(7-(8-ethyl-7-fluoro-3-hydroxynaphthalen-1-yl)-2-(((2R,7aS)-2-fluorotetrahydro-1H-pyrrolizin-7a(5H)-yl)methoxy)-5,6,7,8-tetrahydropyrido[3,4-d]pyrimidin-4-yl)-N,N-dimethyl-4,5,6,7,8,9-hexahydropyrazolo[1,5-a][1,4] diazocine-2-carboxamide], the IC50 is 1320 nM in the experiment on PSN1 cells; under 2 nM at KRas G12R; 6 nM in the experiment on A549 cells; 13 nM in the experiment on H460 cells; 4 nM with H727 cells; 1 nM in the experiment with H358 cells. Besides, the IC50 was 5.5 nM with MKN1 cells; under 2 nM at KRas G12V; 39 nM in the experiment on HCT116 cells; 10 nM with ASPC1 cells; under 2 nM on KRas G12D. Further, the inhibition at 0.1 µM in the experiment on A549 cells was determined as 76%; in the experiment with H460 cells, 84%; in the experiment on H727 cells it was 79%; in the experiment on H358 cells, 101%; in the experiment with HCT116 cells it was 51%; in the experiment on ASPC1 cells, 96%.
In the case of `Cc1c(F)ccc2cc(O)cc(N3CCc4c(nc(OC[C@@]56CCCN5C[C@H](F)C6)nc4N4CCCC5(CNS(=O)(=O)N5)C4)C3)c12` (stereo partly drawn) [Example 512, 7-(7-(7-fluoro-3-hydroxy-8-methylnaphthalen-1-yl)-2-(((2R,7aS)-2-fluorohexahydro-1H-pyrrolizin-7a-yl)methoxy)-5,6,7,8-tetrahydropyrido[3,4-d]pyrimidin-4-yl)-2-thia-1,3,7-triazaspiro[4.5]decane 2,2-dioxide], the IC50 is 276 nM in the experiment with PSN1 cells; 2 nM on KRas G12R; 85 nM in the experiment on H727 cells; 12.6 nM in the experiment on MKN1 cells; under 2 nM on KRas G12V; 30 nM with ASPC1 cells. Besides, at KRas G12D, the IC50 is under 2 nM. Besides, the inhibition at 0.1 µM is 71% in the experiment on A549 cells; 79% in the experiment on H460 cells; 42% in the experiment on H727 cells; 92% with H358 cells; 56% in the experiment on HCT116 cells; 74% with ASPC1 cells.
As for `CCc1c(F)ccc2cc(O)cc(N3CCc4c(nc(OC[C@@]56CCCN5C[C@H](F)C6)nc4N4C[C@@H]5C[C@H](C4)[C@H](O)C5)C3)c12` [Example 585B, (1R,5R,6R)-3-(7-(8-ethyl-7-fluoro-3-hydroxynaphthalen-1-yl)-2-(((2R,7aS)-2-fluorotetrahydro-1H-pyrrolizin-7a(5H)-yl)methoxy)-5,6,7,8-tetrahydropyrido[3,4-d]pyrimidin-4-yl)-3-azabicyclo[3.2.1]octan-6-ol], the IC50 is 6500 nM in the experiment with PSN1 cells; under 2 nM at KRas G12R; 125 nM in the experiment on A549 cells; 163 nM with H460 cells; 191 nM in the experiment on H727 cells; 111 nM in the experiment on H358 cells. Further, the IC50 was 19.7 nM in the experiment on MKN1 cells; under 2 nM at KRas G12V; 439 nM with HCT116 cells; 273 nM with ASPC1 cells; 3 nM on KRas G12D.
For the molecule `CCc1c(F)ccc2cc(O)cc(N3CCc4c(nc(OC[C@]56CCCN5[C@H](COC(=O)N(C)C)CC6)nc4N4CCCn5nc(C(=O)N(C)C)cc5C4)C3)c12` [Example 586, ((3S,7aR)-7a-(((4-(2-(dimethylcarbamoyl)-7,8-dihydro-4H-pyrazolo[1,5-a][1,4]diazepin-5(6H)-yl)-7-(8-ethyl-7-fluoro-3-hydroxynaphthalen-1-yl)-5,6,7,8-tetrahydropyrido[3,4-d]pyrimidin-2-yl)oxy)methyl)hexahydro-1H-pyrrolizin-3-yl)methyl dimethylcarbamate], the concentration for half-maximal inhibition (IC50) in the experiment with PSN1 cells is 8160 nM; on KRas G12R it was under 2 nM; in the experiment with A549 cells it was 48 nM; with H460 cells, 137 nM; with H727 cells it was 29 nM; with H358 cells, 23 nM. For the same molecule, the IC50 was 38 nM in the experiment with MKN1 cells; under 2 nM at KRas G12V; 336 nM with HCT116 cells; 19 nM in the experiment on ASPC1 cells; under 2 nM on KRas G12D.
As for `O=C1NC(=O)[C@]2(CCCN(c3nc(OC[C@@]45CCCN4C[C@H](F)C5)nc4c3CCN(c3cc(O)cc5ccc(F)c(Cl)c35)C4)C2)N1` [Example 587, (R)-7-(7-(8-chloro-7-fluoro-3-hydroxynaphthalen-1-yl)-2-(((2R,7aS)-2-fluorotetrahydro-1H-pyrrolizin-7a(5H)-yl)methoxy)-5,6,7,8-tetrahydropyrido[3,4-d]pyrimidin-4-yl)-1,3,7-triazaspiro[4.5]decane-2,4-dione], the IC50 with PSN1 cells is 170 nM; on KRas G12R, under 2 nM; in the experiment with A549 cells, 33 nM; in the experiment with H460 cells it was 25 nM; in the experiment on H727 cells, 164 nM; with H358 cells it was 11 nM. For the same molecule, the IC50 is 3.3 nM in the experiment with MKN1 cells; under 2 nM on KRas G12V; 82 nM with HCT116 cells; 131 nM in the experiment with ASPC1 cells; under 2 nM at KRas G12D.
As for `CCc1c(F)ccc2cc(O)cc(N3CCc4c(nc(OCC5(CN(C)C)CC5)nc4N4CCCC5(CCO5)C4)C3)c12` (stereo not shown) [Example 588, 4-(2-((1-((dimethylamino)methyl)cyclopropyl)methoxy)-4-(1-oxa-6-azaspiro[3.5]nonan-6-yl)-5,8-dihydropyrido[3,4-d]pyrimidin-7(6H)-yl)-5-ethyl-6-fluoronaphthalen-2-ol], the IC50 with PSN1 cells was 6390 nM; on KRas G12R, under 2 nM; in the experiment with A549 cells, 455 nM; with H460 cells, 276 nM; in the experiment with H727 cells it was 779 nM; with H358 cells it was 211 nM. Moreover, the IC50 in the experiment on MKN1 cells is 250 nM; at KRas G12V it was under 2 nM; in the experiment on HCT116 cells, 544 nM; with ASPC1 cells, 460 nM; on KRas G12D, under 2 nM.
Consider `CCc1c(F)ccc2cc(O)cc(N3CCc4c(nc(OC[C@@]56CCCN5C[C@H](F)C6)nc4N4CCCCn5nc(C(=O)N(C)C)c(Cl)c5C4)C3)c12` [Example 589, 3-chloro-5-(7-(8-ethyl-7-fluoro-3-hydroxynaphthalen-1-yl)-2-(((2R,7aS)-2-fluorotetrahydro-1H-pyrrolizin-7a(5H)-yl)methoxy)-5,6,7,8-tetrahydropyrido[3,4-d]pyrimidin-4-yl)-N,N-dimethyl-4,5,6,7,8,9-hexahydropyrazolo[1,5-a][1,4] diazocine-2-carboxamide], for which the IC50 in the experiment on PSN1 cells is 1080 nM; at KRas G12R, under 2 nM; in the experiment with A549 cells it was 6 nM; with H460 cells, 16 nM; in the experiment with H727 cells, 3 nM; with H358 cells, 2 nM. Further, the IC50 in the experiment with MKN1 cells is 2.5 nM; on KRas G12V it was under 2 nM; in the experiment on HCT116 cells, 30 nM; with ASPC1 cells, 6 nM; at KRas G12D, under 2 nM.
